Results on one compound are retold here after patent US10232002B1, “Oncolytic HSV1 vectors and methods of using the same” (priority 2012, dated 2019).

The subject of this assay is U87ΔEGFR glioma cells.

Consider `Cn1nnc2c(C(N)=O)ncn2c1=O` [TMZ, temozolomide], for which the EC30 dose amounted to 66 µM.
